# Source: US6544995B1, “Use of cysteine derivatives for preparing a medicine for treating pathologies resulting from the formation of heterotrimeric G protein” (Societe de Conseils de Recherches et d'Applications …, priority 1998, dated 2003)
# Read-outs that look alike come from different tables or passages of the source. Where no end group is shown, it is not given here.
# Legend:
# [1] = tested on: MAP kinase; assay: MAP kinase activity in MCF7 cells; assay type: cell-based, human; conditions: for activity of the MAP kinase after EGF stimulation: pretreatment 1 hour, then EGF for 5 minutes
# Method: After 24 hours of culture, the cells are incubated for 48 hours in medium containing no serum in order to return the cells to a state of rest. The cells are then treated for 1 hour either with compound I or with PD98059 (Calbiochem, France Biochem, Meudon, France), a specific inhibitor of MAP kinase activation. The cells are then stimulated (or not) for 5 minutes with 12.5 ng/ml of epidermal growth factor (EGF). The reaction is stopped by two washes with PBS (Gibco-Brl, Cergy-Pontoise, France), at 4° C. containing neither calcium nor magnesium and by adding 150 μl of lysis buffer at 4° C. the composition of which is the following: 10 mM of tris, 150 mM of NaCl, 2 mM of EGTA, 2 mM of dithiothreitol, 1 mM of PMSF, 2 mM of orthovanadate, 10 μg/ml of leupeptin and 10 μg/ml of aprotinin. Measurement of the proteins contained in the extracts is carried out by Bradford's method (Biorad reagents, Ivry-Sur-Seine, France). […] The radioactivity is determined using a Packard scintillation counter (Tricarb 5000CA).
# [2] = tested on: production of cyclic AMP stimulated by VIP in MCF7 cells; assay: Cyclic AMP production stimulated by VIP in MCF-7 cells; assay type: cell-based, human; conditions: for inhibition at 30 µM: Homo sapiens, 0.5 h; for inhibition at 30 µM / Inhibition at 30 μM of production of cyclic AMP stimulated by VIP: MCF7 cells, compound 30 μM for 30 minutes, then 10^-8 M VIP, n=1
# Method: The cells are incubated for 30 minutes in the presence or not of compounds I, II, III and IV (30 μM) which are then stimulated by 10^−8 M of VIP. The quantification of cyclic AMP is determined by radioimmunoassay. The data represents the average±MSD (n=5 for the control and n=1 for the different compounds).
# [3] = tested on: MCF7 human tumour cells; assay: In vitro cell proliferation of MCF-7 cells (WST1); assay type: cell-based; conditions: 96 hours treatment, WST1 test, average of 2 experiments, read-out: IC50, inhibition of in vitro growth of MCF7 cells
# Method: The cells were treated on day 1 for 96 hours with increasing concentrations of up to 50 μM of each of the compounds to be tested. After this period, quantification of cell proliferation is determined by a colorimetric test, based on the cleavage of the WST1 tetrazolum salt by the mitochondrial dehydrogenases in the viable cells, leading to the formation of formazan (Boehringer Mannheim, Meylan, France). These tests are carried out in duplicate with 8 determinations per concentration tested. For each compound to be tested, the values included in the linear part of the sigmoid were retained for linear regression analysis and used to estimate the inhibitory concentration (IC50).
# [4] = tested on: adenylate cyclase
# Method: (§1) MCF-7 cells (2.10^4 cells/well) seeded in 24-well plates are cultured for 5 days in Dulbecco's modified Eagle medium (Gibco-Brl, Cergy-Pontoise, France) completed with 10% of foetal calf serum inactivated by heating (Gibco-Brl, Cergy-Pontoise, France ), 50000 units/l of penicillin and 50 mg/l streptomycin (Gibco-Brl, Cergy-Pontoise, France), and 2 mM of glutamin (Gibco-Brl, Cergy-Pontoise, France). The culture medium is replaced after two washes with a medium without a serum completed or uncompleted with the specified agents for a time indicated in the different figures. Agents activating the production of cyclic AMP are then added at 37° C. The reaction is stopped after 30 minutes by suppressing the medium and rapidly adding 100 μl of a 0.1N solution of HCl. These extracts are frozen at −80° C. until they are used. The concentration of cAMP is measured using a commercial measurement kit (reference NEK033 from NEN, Les Ulis, France), following the manufacturer's instructions. The radioactivity is determined by a Gamma counter (Gamma Master-1277, LKB, Turku, Finland).
# [5] = tested on: heterotrimeric G protein; assay type: cell-based, human
# [6] = tested on: production of cyclic AMP stimulated by VIP in MCF7 cells; assay: Cyclic AMP production stimulated by VIP in MCF-7 cells; assay type: cell-based, human
# [7] = tested on: adenylate cyclase; conditions: pretreatment 30 minutes with 30 μM; forskolin 10 μM
# Method: as §1
compound,measurement,setting,value
EGF: epidermal growth factor used to stimulate MAP kinase [reference compound],increase of MAP kinase activity,[1]; stimulation by EGF for 5 minutes,approximately 7 times
CCCC[C@H]1CN(C(=O)c2cccc3ccccc23)CCN1C[C@@H]1CSSC[C@H](N)C(=O)N1 [compound (VII)],inhibition at 30 µM,[2],65%
"Cc1ccccc1-c1cn2c(n1)C(CC1CCCCC1)N(C(=O)C(N)CS)CC2 (stereo not drawn) [compound (III), 7-(2-amino-1-oxo-3-thiopropyl)-8-(cyclohexylmethyl)-2-(2-methylphenyl)-5,6,7,8-tetrahydroimidazo[1.2a]pyrazine]",Inhibition at 30 μM of production of cyclic AMP stimulated by VIP,[2],59%
same,IC50,[3],16.1 µM
"CCCCC[C@H](O)/C=C/[C@H]1[C@H](O)CC(=O)[C@@H]1C/C=C\CCCC(=O)O [prostaglandin E2, reference compound]",activity of adenylate cyclase,"[4]; prostaglandin E2 alone, MCF7 cells",greatly increased
COc1ccccc1-c1cn2c(n1)C(CC1CCCCC1)N(C(=O)C(N)CSSCC(N)C(=O)N1CCn3cc(-c4ccccc4OC)nc3C1CC1CCCCC1)CC2 (stereo not drawn) [compound (I)],effect on production of cyclic AMP stimulated by choleric toxin,[5],greatly inhibited
same,Inhibition at 30 μM of production of cyclic AMP stimulated by VIP,[2],86%
same,inhibition of accumulation of cyclic AMP stimulated by VIP at 100 μM,"[6]; 100 μM, 30-minute pretreatment, VIP 10 nM",almost complete inhibition
same,"inhibition of accumulation of cyclic AMP stimulated by VIP, concentration dependence","[6]; 30-minute pretreatment, VIP 10 nM",in a concentration-dependent manner
same,"effect on response to VIP, treatment for an hour",[6]; 1 hour treatment,sufficient to modify the response to VIP
same,"effect on production of cyclic AMP, longer treatments","[6]; 8 hours and 24 hours treatment, VIP",continue to inhibit
same,effect on production of cyclic AMP induced by forskolin,[7],does not modify
same,effect on adenylate cyclase activity increased by prostaglandin E2,[4]; treatment for 30 minutes,inhibited
same,activity of the MAP kinase after EGF stimulation,[1],halves
same,basal activity of the MAP kinase,"[1]; treatment for 1 hour, no EGF",doubles
same,IC50,[3],9.4 µM
CC(C)CC1c2nc(-c3cccc4ccccc34)cn2CCN1C(=O)C(N)CSSCC(N)C(=O)N1CCn2cc(-c3cccc4ccccc34)nc2C1CC(C)C (stereo not drawn) [compound (II)],Inhibition at 30 μM of production of cyclic AMP stimulated by VIP,[2],71%
same,IC50,[3],15 µM
"CCC(C)C1c2nc(-c3ccccc3OC)cn2CCN1C(=O)C(N)CSSCC(N)C(=O)N1CCn2cc(-c3ccccc3OC)nc2C1C(C)CC (stereo not drawn) [compound (VI), bis-1,1′-[7-(2-amino-1-oxo-3-thiopropyl)-2-(methoxyphenyl)-8-(1-methylpropyl)-5,6,7,8-tetrahydroimidazo[1.2a]pyrazine]]",Inhibition at 30 μM of production of cyclic AMP stimulated by VIP,[2],52%
"COc1cccc(-c2cc(=O)c3ccccc3o2)c1N [PD98059, reference compound]",activity of the MAP kinase after EGF stimulation,[1],halves
"CCCCC1c2nc(-c3ccccc3OC)cn2CCN1C(=O)C(N)CS (stereo not drawn) [compound (V), 7-(2-amino-1-oxo-3-thiopropyl)-8-butyl-2-(2-methoxyphenyl)-5,6,7,8-tetrahydroimidazo[1.2a]pyrazine]",Inhibition at 30 μM of production of cyclic AMP stimulated by VIP,[2],68%
COC(=O)[C@@H](CC(C)C)NC(=O)c1ccc(NC[C@@H](N)CS)cc1-c1ccccc1 [compound (IV)],inhibition at 30 µM,[2],52%
same,IC50,"[3]; Homo sapiens, MCF7",34.6 µM
"VIP: vasoactive intestinal peptide, ligand of a G protein-coupled receptor stimulating cyclic AMP synthesis (HSDAVFTDNYTRLRKQMAVKKYLNSILN; ends and bridges not checked; UniProt P01282 125-152, looked up) [reference compound]",intracellular quantity of cyclic AMP,[2]; treatment of MCF-7 cells with VIP alone,increases the intracellular quantity of cyclic AMP in a concentration-dependent manner
